Like-named read-outs stand apart in the source and are kept apart here. *1 amine or outer side, *2 acyl side, *3 side chain or, on linkers, in order; H or OH if unused. Where no end group is shown, it is not given here. [ ]: non-standard residue; d: D form. Tyr(125I) = 125I-iodinated Tyr, O=C([C@H](Cc1ccc(O[*:3])c([125I])c1)N[*:1])[*:2]; Tyr(3-I) = N[C@@H](Cc1ccc(O)c(I)c1)C(=O)O
Key:
[1] = biological target: T1, CEGPCR4 receptor (Caenorhabditis elegans, UniProt A0A078BTK0); assay: Flp18 binding assay: [125I]YDVPGVLRFamide binding and competition on CEGPCR4/CHO membranes; set-up: species or system C. elegans; conditions: in words
T1 sequence (A0A078BTK0 1-376): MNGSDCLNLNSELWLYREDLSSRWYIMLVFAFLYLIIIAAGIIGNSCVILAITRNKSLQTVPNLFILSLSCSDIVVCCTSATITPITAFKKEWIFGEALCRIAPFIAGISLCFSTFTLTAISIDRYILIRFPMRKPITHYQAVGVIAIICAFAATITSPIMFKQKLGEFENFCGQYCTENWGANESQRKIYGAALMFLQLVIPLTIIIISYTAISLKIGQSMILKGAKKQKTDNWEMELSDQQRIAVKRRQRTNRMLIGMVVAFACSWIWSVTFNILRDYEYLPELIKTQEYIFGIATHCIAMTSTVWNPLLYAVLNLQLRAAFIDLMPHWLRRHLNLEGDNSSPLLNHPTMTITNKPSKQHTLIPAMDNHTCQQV
Method: A peptide ligand screening assay that measures ligand binding to a suitable GPCR-like receptor according to the invention is exemplified using a modified C. elegans Flp18 peptide ligand.
Membranes for use in the assay are derived from cells stably transfected with a GPCR-like receptor expression construct. The transfected cells are grown in 10 cm dishes to subconfluence, rinsed once with 5 ml of ice-cold Ca^2+/Mg^2+—free PBS, and scraped into 5 ml of the same buffer. Cells are pelleted by centrifugation (500×g, 5 minutes), resuspended in 25 mM Tris, pH 7.5, 5 mM EDTA, 5 mM EDTA, pH 7.5 (TEE), and frozen in liquid nitrogen. After thawing, the cells are homogenized using a Dounce homogenizer (one ml TEE per plate of cells), and centrifuged at 1,000×g for 5 minutes to remove nuclei and unbroken cells.
The homogenate supernatant is centrifuged at 20,000×g for 20 minutes to isolate the membrane fraction, and the membrane pellet is washed once with TEE and resuspended in binding buffer (20 mM HEPES, pH 7.5, 150 mM NaCl, 10 mM MgCl2, 1 mM EDTA). […]
The peptide ligand screening assay is facilitated by use of 96-well plates Millipore Multiscreen® filtration plates (FB opaque 1.0 μM glass fiber type B, catalog number MAFBNOB50). […] The following day, the plate is counted in a Microbeta® scintillation counter.

[2] = biological target: T2, CEGPCR16 receptor (Caenorhabditis elegans, UniProt Q9XXU4); assay: [35S]GTPγS binding assay, CEGPCR16 expressed in CHO cells; assay type: biochemical, C. elegans; conditions: membranes from cells transfected and maintained at 37° C.
T2 sequence (Q9XXU4 1-365): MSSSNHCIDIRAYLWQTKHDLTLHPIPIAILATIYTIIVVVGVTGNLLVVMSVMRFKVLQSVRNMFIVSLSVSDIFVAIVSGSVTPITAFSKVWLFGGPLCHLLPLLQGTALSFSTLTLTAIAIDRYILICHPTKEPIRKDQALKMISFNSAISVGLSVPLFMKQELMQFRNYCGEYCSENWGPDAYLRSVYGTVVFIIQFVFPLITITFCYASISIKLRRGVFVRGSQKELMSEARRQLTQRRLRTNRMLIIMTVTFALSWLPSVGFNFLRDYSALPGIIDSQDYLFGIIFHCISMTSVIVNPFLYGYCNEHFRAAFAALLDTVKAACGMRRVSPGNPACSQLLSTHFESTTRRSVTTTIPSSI

[3] = biological target: T2, CEGPCR16 receptor; assay: as above; assay type: biochemical, C. elegans
Method: (§1) Recombinant pCR3.1 clones encoding invertebrate GPCR-like receptors were transformed into wild-type CHO-K1 cells and functional expression was achieved using a temperature-shift incubation protocol. The CHO-K1 cells were cultured at 37° C. in a humidified atmosphere of 5% CO2 in air in DMEM medium supplemented with 10% heat-inactivated fetal bovine serum (i.e., FBS), 10 μg/ml gentamicin, and 0.1 mM nonessential amino acids to give complete DMEM medium. Additionally, for incubations at temperatures lower than 37° C., the medium was fortified with 10 mM HEPES (pH 7.4). Cells were transfected with recombinant pCR3.1 clones containing GPCR-like receptor DNAs, using LipofectAMINE PLUS™, essentially according to the manufacturer's instructions. […] In separate plastic tubes, PLUS (20 μl/plate; Life Technologies) was added to 0.75 ml/plate of recombinant plasmid DNA in OptiMEM (5 μg/plate; Gibco/BRL—Life Technologies), mixed and incubated at room temperature for 15 minutes. Separately, LipofectAMINE (30 μl/plate) was mixed with 0.75 ml OptiMEM and added to the pre-complexed DNA/PLUS mixture and incubated at room temperature for 15 minutes. The culture medium was then replaced with serum-free transfection medium (DMEM, 5 ml/plate). The DNA-PLUS-LipofectAMINE complex was then added to the plates (1.5 ml/plate) and mixed gently into the medium, followed by a 3 hour incubation at 37° C. in 5% CO2. At this time, the medium was supplemented with complete DMEM medium containing 20% FBS (6.5 ml/plate) and incubation was continued at 37° C. in 5% CO2. After a total of 24 hours at 37° C. in 5% CO2, the medium was replaced with complete DMEM medium fortified with 10 mM HEPES (10 ml/plate) and the cells were moved to an incubator maintained at 28-30° C. in a humidified atmosphere of 5% CO2 in air. The incubation continued for an additional 24 hours, typically at the lower temperature indicated above. A plasmid encoding Green Fluorescent Protein (i.e., GFP, 4 μg/plate) was used for transient GFP expression in CHO-K1 cells to estimate the transfection yields under the same conditions as used for GPCR-like receptor polynucleotides.
(§2) To assess expression, membranes were prepared from transfected CHO-K1 cells. Transfected cells were washed once with ice-cold Dulbecco's phosphate-buffered saline (i.e., PBS), 5 ml per 10 cm plate, and the cells were scraped into 5 ml of the same buffer. Cell suspensions from multiple plates were combined and centrifuged at 500×g for 10 minutes at 4° C. The cell pellet was reconstituted in ice-cold TEE (25 mM Tris, pH 7.4, 5 mM EGTA, 5 mM EDTA). Convenient aliquots were snap-frozen in liquid nitrogen and stored at −70° C. After thawing, the cells were homogenized and centrifuged at 500×g for 5 minutes at 4° C. to pellet nuclei and unbroken cells. Tile supernatant was centrifuged at 47,000×g for 30 minutes at 4° C. The membrane pellet was washed once with TEE, resuspended in 20 mM HEPES, pH 7.4, 100 mM NaCl, 10 mM MgCl2, 1 mM EDTA (assay buffer), distributed into aliquots of 0.5-1.0 ml, and frozen in liquid nitrogen. Membrane aliquots were stored at −70° C. Membrane protein concentration was determined using the BCA Protein Assay Reagent from Pierce (Rockford, Ill.), with bovine serum albumin (i.e., BSA) as a standard.
(§3) Aliquots of cell membranes prepared as described above and stored at −70° C. were thawed, homogenized, and diluted into buffer containing 20 mM HEPES, pH 7.4, 10 mM MgCl2, 1 mM EDTA, and 100 mM NaCl at a concentration of 10-50 μg/ml. Reaction mixtures were prepared in 96-well polypropylene plate, Nunc. Twenty microliters of a 10× putative modulator compound (including but not limited to potential peptide ligands) solution or a water control (20 μl), 18.2 µM GDP (0.11 ml, 10 μM final concentration), and a membrane preparation were mixed and placed on ice. The modulator/ligand-GDP-membrane mixtures were incubated for 20 minutes at room temperature on a shaking platform and then placed on ice.

[4] = biological target: T3, CEGPCR12h receptor (Caenorhabditis elegans, UniProt Q20275); assay: [35S]GTPγS binding assay, CEGPCR12h expressed in CHO cells; assay type: biochemical, C. elegans
T3 sequence (Q20275 1-402): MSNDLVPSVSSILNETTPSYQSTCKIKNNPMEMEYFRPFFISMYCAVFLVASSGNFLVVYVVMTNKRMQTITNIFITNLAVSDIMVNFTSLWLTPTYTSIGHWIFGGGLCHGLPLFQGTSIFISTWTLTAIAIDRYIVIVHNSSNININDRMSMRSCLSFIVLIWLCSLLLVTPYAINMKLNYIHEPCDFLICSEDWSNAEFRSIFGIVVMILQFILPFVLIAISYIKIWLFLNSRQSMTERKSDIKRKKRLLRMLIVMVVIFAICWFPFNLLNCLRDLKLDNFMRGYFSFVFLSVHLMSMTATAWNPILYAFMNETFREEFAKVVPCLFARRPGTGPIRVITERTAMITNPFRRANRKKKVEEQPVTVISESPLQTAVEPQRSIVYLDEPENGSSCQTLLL
Method: as §1, §2, §3

[5] = biological target: T1, CEGPCR4 receptor; assay: [35S]GTPγS binding assay, membranes of CHO cells transfected with CEGPCR4; assay type: biochemical, C. elegans
Method: Recombinant pCR3.1 clones encoding invertebrate GPCR-like receptors were transformed into wild-type CHO-K1 cells and functional expression was achieved using a temperature-shift incubation protocol. The CHO-K1 cells were cultured at 37° C. in a humidified atmosphere of 5% CO2 in air in DMEM medium supplemented with 10% heat-inactivated fetal bovine serum (i.e., FBS), 10 μg/ml gentamicin, and 0.1 mM nonessential amino acids to give complete DMEM medium. Additionally, for incubations at temperatures lower than 37° C., the medium was fortified with 10 mM HEPES (pH 7.4). Cells were transfected with recombinant pCR3.1 clones containing GPCR-like receptor DNAs, using LipofectAMINE PLUS™, essentially according to the manufacturer's instructions. […] In separate plastic tubes, PLUS (20 μl/plate; Life Technologies) was added to 0.75 ml/plate of recombinant plasmid DNA in OptiMEM (5 μg/plate; Gibco/BRL—Life Technologies), mixed and incubated at room temperature for 15 minutes. Separately, LipofectAMINE (30 μl/plate) was mixed with 0.75 ml OptiMEM and added to the pre-complexed DNA/PLUS mixture and incubated at room temperature for 15 minutes. […]
To assess expression, membranes were prepared from transfected CHO-K1 cells. […] Membrane protein concentration was determined using the BCA Protein Assay Reagent from Pierce (Rockford, Ill.), with bovine serum albumin (i.e., BSA) as a standard. […]

[6] = system: CEGPCR12c; assay: [35S]GTPγS binding assay, membranes of CHO cells transfected with CEGPCR12c; assay type: biochemical, C. elegans
[7] = biological target: human D2 receptor (Homo sapiens, UniProt P14416); conditions: 37° C. versus temperature-shift transfection protocol
Sequence of human D2 receptor (P14416 whole entry): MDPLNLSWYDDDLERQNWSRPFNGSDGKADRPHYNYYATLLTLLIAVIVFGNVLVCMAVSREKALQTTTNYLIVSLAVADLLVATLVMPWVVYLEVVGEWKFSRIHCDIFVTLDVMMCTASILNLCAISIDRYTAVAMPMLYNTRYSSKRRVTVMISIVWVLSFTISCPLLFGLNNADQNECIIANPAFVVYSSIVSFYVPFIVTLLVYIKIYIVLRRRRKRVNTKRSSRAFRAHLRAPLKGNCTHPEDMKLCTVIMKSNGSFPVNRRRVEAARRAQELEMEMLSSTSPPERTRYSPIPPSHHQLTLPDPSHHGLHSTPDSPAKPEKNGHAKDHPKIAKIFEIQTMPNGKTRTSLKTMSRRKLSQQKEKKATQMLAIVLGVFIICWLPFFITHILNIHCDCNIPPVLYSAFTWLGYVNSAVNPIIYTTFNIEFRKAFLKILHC
Method: as §3

[8] = biological target: T4, CEGPCR5 (Caenorhabditis elegans, UniProt Q18179); assay: [35S]GTPγS binding assay, CEGPCR5 expressed in CHO cells; assay type: biochemical, C. elegans; conditions: membranes from cells transfected and maintained at 37° C.
T4 sequence (Q18179 1-402): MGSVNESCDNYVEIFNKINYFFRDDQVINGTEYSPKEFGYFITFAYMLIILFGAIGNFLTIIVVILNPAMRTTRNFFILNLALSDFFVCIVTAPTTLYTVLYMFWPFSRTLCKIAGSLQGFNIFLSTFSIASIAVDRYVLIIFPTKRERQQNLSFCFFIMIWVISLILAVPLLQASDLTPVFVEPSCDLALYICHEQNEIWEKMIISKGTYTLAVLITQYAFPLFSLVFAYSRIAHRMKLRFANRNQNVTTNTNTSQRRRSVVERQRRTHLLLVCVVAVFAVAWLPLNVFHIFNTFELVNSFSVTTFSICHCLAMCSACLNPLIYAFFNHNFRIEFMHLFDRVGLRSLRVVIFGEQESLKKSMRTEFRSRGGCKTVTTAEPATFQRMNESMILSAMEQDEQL

[9] = biological target: T4, CEGPCR5; assay: as above; assay type: biochemical, C. elegans
[10] = biological target: T5, CEGPCR7 receptor (Caenorhabditis elegans, UniProt Q18534); assay: [35S]GTPγS binding assay, membranes of CHO cells transfected with CEGPCR7; assay type: biochemical, C. elegans
T5 construct: Each of the 22 putative GPCR-like receptor clones appeared to contain a full-length coding region; expressed in transfected cells; host or cells: CHO-K1, transient, pCR3.1 clone, 37 to 28 C temperature shift
T5 sequence (Q18534 1-457): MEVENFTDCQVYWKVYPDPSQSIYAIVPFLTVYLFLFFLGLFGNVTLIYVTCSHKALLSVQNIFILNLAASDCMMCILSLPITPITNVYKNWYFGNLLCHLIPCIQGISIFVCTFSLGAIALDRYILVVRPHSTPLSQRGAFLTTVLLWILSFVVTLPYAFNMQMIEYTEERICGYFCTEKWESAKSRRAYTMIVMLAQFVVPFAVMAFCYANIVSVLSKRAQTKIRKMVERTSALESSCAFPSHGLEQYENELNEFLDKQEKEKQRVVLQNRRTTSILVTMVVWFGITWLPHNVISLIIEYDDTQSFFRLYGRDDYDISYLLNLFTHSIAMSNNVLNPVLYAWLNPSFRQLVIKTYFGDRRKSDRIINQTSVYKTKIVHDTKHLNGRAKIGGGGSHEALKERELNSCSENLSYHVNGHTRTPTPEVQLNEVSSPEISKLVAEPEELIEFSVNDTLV
Method: as §1, §2
Aliquots of cell membranes prepared as described above and stored at −70° C. were thawed, homogenized, and diluted into buffer containing 20 mM HEPES, pH 7.4, 10 mM MgCl2, 1 mM EDTA, and 100 mM NaCl at a concentration of 10-50 μg/ml.

[11] = biological target: T6, CEGPCR4 (C. elegans); assay: radioligand binding to CEGPCR4/CHO membranes
T6 construct: Expressed in CHO cells; also called CEGPCR4 receptor; CEGPCR4/CHO membranes
T6 chain: T1 sequence (A0A078BTK0 1-376)

[12] = biological target: T7, CEGPCR7 (C. elegans), Q18534; assay: cell-based or functional assay
T7 chain: T5 sequence (Q18534 1-457)

[13] = temperature shift to 28° C. 24 hours after transfection
[14] = membranes from cells transfected and maintained at 37° C.

[^125I-Y]DVPGVLRF-NH2 ([Tyr(125I)]DVPGVLRF-NH2)
Kd, binding to the CEGPCR4/CHO membranes [1]: subnanomolar range

ASEDALFGTMRF-NH2 [ASEDALFGTMRF-NH2]
receptor activation by matched ligand [2]: not detectably activated
EC50 ([3]; Table 10, one range for the group of peptides, read-out: EC50 range): 60 to 300 nM
ligand-induced [35S]GTPγS binding [3, 13]: significant stimulation

PDVDHVFLRF-NH2 [PDVDHVFLRF-NH2]
EC50 ([4]; EC50): 330 nM
EC50 ([4]; EC50 range, Table 11, one range for the group, results apply to all CEGPCR12 isoforms): 300 to 500 nM
receptor activation by matched ligand [5, 14]: not detectably activated
ligand-induced [35S]GTPγS binding [5, 13]: significant stimulation
receptor activation by matched ligand [6, 14]: not detectably activated
ligand-induced [35S]GTPγS binding [6, 13]: significant stimulation

NCCc1ccc(O)c(O)c1 [dopamine]
responses of the receptor to its ligand [7]: the same regardless of the transfection protocol used

H-GLGPRPLRF-NH2 [GLGPRPLRF-NH2]
receptor activation by matched ligand [8]: not detectably activated
activity at single concentration ([4]; Table 11, peptides tested at 5 μM): active at
EC50 [9]: 1 to 10 nM
EC50 ([9]; in words): low nanomolar range
ligand-induced [35S]GTPγS binding [9, 13]: significant stimulation
EC50 ([10]; EC50, single values): 207 nM
EC50 ([10]; EC50 range, Table 7, one range for the group of peptides): 200 to 250 nM
ligand-induced [35S]GTPγS binding, fold elevation in activity ([10]; cooling (28° C.) protocol): 2.6 fold

B1: 3-Iodo-Y-DVPGVLRF-NH2 (peptide)
peptide: [Tyr(3-I)]DVPGVLRF-NH2
modifications: N-terminus assumed
SMILES: CC(C)C[C@H](NC(=O)[C@@H](NC(=O)CNC(=O)[C@@H]1CCCN1C(=O)[C@@H](NC(=O)[C@H](CC(=O)O)NC(=O)[C@@H](N)Cc1ccc(O)c(I)c1)C(C)C)C(C)C)C(=O)N[C@@H](CCCNC(=N)N)C(=O)N[C@@H](Cc1ccccc1)C(N)=O
notes: Synthetic flp18 analog; the radioiodinated form is treated as the same molecule
Kd [11]: < 1 nM

GLGPRPLRF-NH2 […-NH2 (AF9)]
AF9-induced [35S]GTPγS binding, constant 37° C. (third experiment) [12]: 1.4 fold
